According to US9327005B1, “Compositions and methods for improved energy metabolism” (VDF FutureCeuticals, Inc., priority 2012, dated 2016):

Tested on: freshly isolated human peripheral blood cells
Test: Seahorse oxygen consumption rate (OCR)
Type: cell-based
Conditions: average
Experimental: Testing was performed using Seahorse technology in order to measure real-time changes in oxygen consumption by freshly isolated human peripheral blood cells.
All results were generated on freshly isolated blood cells from different and randomly selected healthy and fasted donors. […] These two values were used as positive and negative controls, respectively, in order to ensure quality of test, viability and metabolic functionality of fresh human blood cells. Oligomycin inhibits oxygen metabolism. In presence of this substance, cells generate ATP/energy mainly via glycolysis. […] To ensure quality of human blood cells, blood was collected directly into Cell Preparation Tube with Sodium Citrate, Becton Dickinson Inc. Peripheral blood cells were isolated during 45 minutes following Protocol provided by Becton Dickinson. Blood cells were cultivated during each experiment in Seahorse media supplemented with 5 mM of glucose. Glucose concentration was adjusted from 11 mM to 5 mM to avoid testing of samples under hyperglycemic conditions (typically glucose at concentration lower than 95 mg/dl).
Cells were isolated from healthy fasted subject, and treated with apple extract at indicated dose. […] Rate 7, 8 and 14 represent time-points: 4, 8 and 32 minutes after the treatment, respectively.

Row | SMILES | increase in OCR (positive control) | inhibition of OCR (negative control)
1 | N#CC(C#N)=NNc1ccc(OC(F)(F)F)cc1 [FCCP] | 397% | 
2 | CC[C@H]1/C=C/C=C/C[C@@H](C)[C@H](O)[C@@](C)(O)C(=O)[C@@H](C)[C@H](O)[C@@H](C)C(=O)[C@@H](C)[C@H](O)[C@@H](C)/C=C/C(=O)O[C@@H]2[C@H](C)[C@H](CC1)O[C@]1(CC[C@H](C)[C@H](C[C@@H](C)O)O1)[C@H]2C [oligomycin] |  | 86%
